Measurements from ChEMBL document CHEMBL1759869, “Discovery of spirocyclic sulfonamides as potent Akt inhibitors with exquisite selectivity against PKA” (Bioorg Med Chem Lett, 2011).

Assays:
[1] = target: T1, RAC-alpha serine/threonine-protein kinase (Homo sapiens, UniProt P31749); assay: Inhibition of Akt1
[2] = Inhibition of PKA
[3] = Selectivity ratio of IC50 for PKA to IC50 for Akt1
[4] = target: T1, RAC-alpha serine/threonine-protein kinase; assay: Inhibition of AKT1-mediated PRAS40 phosphorylation in human LNCaP cells; type: cell-based

T1 sequence (P31749 whole entry): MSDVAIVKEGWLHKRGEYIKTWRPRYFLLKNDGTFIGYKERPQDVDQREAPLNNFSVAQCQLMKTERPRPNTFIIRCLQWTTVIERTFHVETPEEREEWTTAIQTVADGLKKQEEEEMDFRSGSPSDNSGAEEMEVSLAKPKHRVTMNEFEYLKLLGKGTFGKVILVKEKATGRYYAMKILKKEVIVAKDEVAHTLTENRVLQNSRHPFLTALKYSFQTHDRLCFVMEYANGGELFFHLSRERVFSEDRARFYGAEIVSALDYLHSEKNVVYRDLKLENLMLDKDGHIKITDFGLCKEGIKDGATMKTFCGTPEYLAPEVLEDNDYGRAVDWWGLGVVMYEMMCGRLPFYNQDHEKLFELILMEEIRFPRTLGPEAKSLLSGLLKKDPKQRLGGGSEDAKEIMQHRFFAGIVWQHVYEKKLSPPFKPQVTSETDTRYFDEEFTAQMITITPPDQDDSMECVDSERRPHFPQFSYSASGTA

| Structure (SMILES) | IC50 [1] | IC50 [2] | Ratio IC50 [3] | IC50 [4] |
| --- | --- | --- | --- | --- |
| Cc1cc(F)ccc1S(=O)(=O)NC[C@@H](O)CN1CCC[C@@]2(CCN(c3ncnc(N)c3C3CC3)C2)C1 | 8 nM | 7800 nM | 970 | 2200 nM |
| Nc1ncnc(N2CC[C@@]3(CCCN(C[C@H](O)CNS(=O)(=O)c4ccccc4Br)C3)C2)c1C1CC1 | 17 nM | 9400 nM | 550 | 2000 nM |
| Cc1ccncc1S(=O)(=O)NC[C@@H](O)CN1CCC[C@@]2(CCN(c3ncnc(N)c3C3CC3)C2)C1 | 1100 nM | > 10000 nM | > 9 |  |
| CCOCCN(C[C@@H](O)CN1CCCC2(CCN(c3ncncc3C3CC3)C2)C1)S(=O)(=O)c1c(C)cccc1C (some centres undefined) | 12 nM | 3400 nM | 280 | 740 nM |
| CCOCCN(C[C@@H](O)CN1CCCC2(CCN(c3ncnc(N)c3C3CC3)C2)C1)S(=O)(=O)c1c(C)cccc1C (mixture of isomers) | 12 nM | 2200 nM | 180 | 470 nM |
| Nc1ncnc(N2CC[C@@]3(CCCN(C[C@H](O)CNS(=O)(=O)c4ccccc4F)C3)C2)c1C1CC1 | 81 nM | > 10000 nM | > 120 | 14000 nM |
| CCOCCN(C[C@@H](O)CN1CCCC2(CCN(c3ncnc4[nH]cc(C)c34)C2)C1)S(=O)(=O)c1c(C)cccc1C (some centres undefined) | 2 nM | 67 nM | 28 | 180 nM |
| Cc1cccc(C)c1S(=O)(=O)N1CCC[C@@H]1[C@@H](O)CN1CCC[C@@]2(CCN(c3ncnc(N)c3C3CC3)C2)C1 | 19 nM | 4700 nM | 250 | 2400 nM |
| Cc1ccccc1S(=O)(=O)NC[C@@H](O)CN1CCC[C@@]2(CCN(c3ncnc(N)c3C3CC3)C2)C1 | 9 nM | 5000 nM | 560 | 1200 nM |
| Cc1cccc(C)c1S(=O)(=O)NC[C@@H](O)CN1CCC[C@@]2(CCN(c3ncnc(N)c3C3CC3)C2)C1 | 4 nM | 3400 nM | 850 | 900 nM |
| Cc1noc(C)c1S(=O)(=O)NC[C@@H](O)CN1CCC[C@@]2(CCN(c3ncnc(N)c3C3CC3)C2)C1 | 3 nM | 1900 nM | 630 | 490 nM |
| CCOCCN(C[C@@H](O)CN1CCCC2(CCN(c3ncnc4[nH]nc(C)c34)C2)C1)S(=O)(=O)c1c(C)cccc1C (some centres undefined) |  | 560 nM | 27 |  |
| CCOCCN(C[C@@H](O)CN1CCCC2(CCN(c3ncnc4ccccc34)C2)C1)S(=O)(=O)c1c(C)cccc1C (some centres undefined) |  | 4700 nM |  | 2400 nM |
| Cc1ccc(S(=O)(=O)NC[C@@H](O)CN2CCC[C@@]3(CCN(c4ncnc(N)c4C4CC4)C3)C2)c(C)c1 | 160 nM | > 10000 nM | > 63 | 18000 nM |
| CCOCCN(C[C@@H](O)CN1CCCC2(CCN(c3ncnc4n[nH]c(C)c34)C2)C1)S(=O)(=O)c1c(C)cccc1C (some centres undefined) | 21 nM |  |  | 310 nM |
| Nc1ncnc(N2CC[C@@]3(CCCN(C[C@H](O)CNS(=O)(=O)c4ccccc4Cl)C3)C2)c1C1CC1 | 9 nM | 8300 nM | 920 | 1900 nM |
| Cc1cccc(C)c1S(=O)(=O)N1CCC[C@H]1[C@H](O)CN1CCC[C@@]2(CCN(c3ncnc(N)c3C3CC3)C2)C1 | 250 nM | > 10000 nM | > 40 | 13000 nM |
| CCOCCN(C[C@@H](O)CN1CCCC2(CCN(c3ncnc4[nH]cc(C)c34)CC2)C1)S(=O)(=O)c1c(C)cccc1C | 41 nM | 210 nM | 5 | 1200 nM |
| Cc1cccc(C)c1S(=O)(=O)N1CCC[C@H]1[C@@H](O)CN1CCC[C@@]2(CCN(c3ncnc(N)c3C3CC3)C2)C1 | 9 nM | 3900 nM | 430 | 690 nM |
